PMC6522964 (Journal of Enzyme Inhibition and Medicinal Chemistry, 2019)
Read-outs that look alike come from different tables or passages of the source.

Columns and labels:
mushroom tyrosinase [1] = target: T1, mushroom tyrosinase (Agaricus bisporus, UniProt C7FF04); assay: Monophenolase activity of mushroom tyrosinase (L-Tyr as substrate); assay type: biochemical; settings: maximum concentration 20 μM
T1 construct: purchased Sigma-Aldrich (St. Louis, MO, USA)
Experimental: (§1) The reaction system (3 ml) contained 1 mM L-Tyr or 0.5 mM L-DOPA and enzyme in 50 mM Na2HPO4–NaH2PO4 buffer (pH 6.8) and different concentrations of KADs. The KADs were dissolved in DMSO and diluted to appropriate concentration, such that the final concentration of DMSO is maintained at 3.3%. […] The enzyme activity was evaluated by increasing the absorbance at 475 nm accompanying the oxidation of the substrates with a molar absorption coefficient of 3700 (M^−1 cm^−1). […] The reaction was carried out at 37 °C. A Thermo […] GO spectrophotometer was used for absorbance and kinetic measure.

mushroom tyrosinase [2] = target: T1, mushroom tyrosinase; assay: Diphenolase activity of mushroom tyrosinase (L-DOPA as substrate), Lineweaver-Burk kinetics; assay type: biochemical; settings: for Inhibition Type / Inhibition Mechanism: diphenolase; for Inhibition Type: Lineweaver-Burk plots; for Inhibition Mechanism: enzyme activity vs enzyme concentration plots; for Inhibition constant KIS: enzyme-substrate complex, plot of vertical intercepts vs inhibitor concentration; for Ki: free enzyme, plot of slopes vs inhibitor concentration, read-out: Inhibition constant KI
Experimental: as §1

tyrosinase [3] = target: T2, tyrosinase (Agaricus bisporus, UniProt C7FF04); assay: Intrinsic fluorescence quenching of tyrosinase (Stern-Volmer); assay type: binding, mushroom
T2 construct: purchased Sigma-Aldrich (St. Louis, MO, USA)
T2 sequence (C7FF04 1-392): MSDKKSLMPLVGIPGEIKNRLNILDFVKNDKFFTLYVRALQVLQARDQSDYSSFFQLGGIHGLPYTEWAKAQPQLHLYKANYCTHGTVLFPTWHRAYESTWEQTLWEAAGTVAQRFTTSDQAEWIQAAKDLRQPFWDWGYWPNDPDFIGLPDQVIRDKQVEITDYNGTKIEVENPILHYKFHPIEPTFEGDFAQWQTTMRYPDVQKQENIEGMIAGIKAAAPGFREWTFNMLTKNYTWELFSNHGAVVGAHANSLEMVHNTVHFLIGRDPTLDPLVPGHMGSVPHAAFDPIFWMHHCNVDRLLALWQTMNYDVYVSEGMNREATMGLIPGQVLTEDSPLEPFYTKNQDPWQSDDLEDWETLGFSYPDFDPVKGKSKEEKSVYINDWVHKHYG
Experimental: Fluorescence spectra were determined as previously reported by Zhu.[12] Cary Eclipse fluorescence spectrophotometer was used to record the fluorescence intensities at an excitation wavelength of 280 nm, and emission and excitation slit widths were 10 nm and 5 nm, respectively. At wavelengths of 300–450 nm, fluorescence emission spectra were recorded. In this assay, 10 μL of KADs of different concentrations were incorporated with 2 ml tyrosinase solution (0.2 mg/ml).
The fluorescence quenching data expressed as the fluorescence intensity against KADs concentration. Fluorescence quenching was calculated using the Stern–Volmer equation: F0/F = 1 + KSV[Q] Where F0 is the fluorescence intensities of tyrosinase, F is the fluorescence intensities after addition of the quencher, [Q] is the concentration of the quencher and KSV is the Stern–Volmer quenching constant. For the calculation of biomolecular quenching constants, the data were plotted as F0/F against [Q], with the biomolecular quenching constants calculated by linear regression.
There are two known fluorescence quenching mechanisms: static quenching is caused by complex formation while dynamic quenching is caused by collisional processes.[13] For the static quenching, the KSV value must be larger than 100 M^−1 and the apparent binding constant (KA) and the binding sites (n) were estimated by plots of log[(F0−F)/F] versus log[Q] using the following equation:[14] log ((F0 − F)/F) = logKA + nlog [Q]

tyrosinase [4] = target: T2, tyrosinase; assay type: biochemical, mushroom; settings: increasing CuCl2 0-240 μM; diphenolase activity
Experimental: To investigate whether the binding of copper ions with the inhibitor takes place at the active site of tyrosinase, the assay was carried out according to the method by Ismaya with some modifications.[17] Stock solutions of each KADs (10 mM) were prepared in DMSO. Then, 0.33 mM solutions were prepared in a cuvette containing phosphate buffer (10 mM, pH 7.4), and treated with different concentrations of CuCl2 (0, 60, 120, 180 or 240 µM). After 10 min of incubation period at room temperature, absorbance was scanned from 240 to 600 nm. Moreover, the relative activity of tyrosinase was determined by adding 0.1 ml various concentrations of CuCl2–KADs complexes from the previous step. The reaction system and the method were the same as the determination of diphenolase activity.

[5] = DPPH free-radical scavenging assay
Experimental: (§2) The antioxidant capacities of compounds usually analysed through DPPH and ABTS^+ free-radical scavenging assays. The DPPH free-radical scavenging was conducted according to the procedure described by Chen.[18] Stock solution (0.2 mM DPPH) was prepared in 95% methyl alcohol and diluted to with OD value of 1.1 ± 0.05 at 517 nm for analysis. Briefly, 0.1 ml of compounds dissolved in DMSO at different concentrations (50, 200, 400 and 800 μg/ml) were added to DPPH with a methyl alcohol solution (0.2 mM, 2.9 ml). The mixture was shaken gently and absorbance was read at 517 nm every 5 min, a total of 30 min. The ABTS^+ free-radical scavenging activity assay was performed as described by Ai[9] with slight modification. 7 mM ABTS^+ and 2.45 mM K2S2O8 were dissolved in 10 mM sodium phosphate buffer and then placed at dark room for 16 h to obtain ABTS^+ stock solution. […] After 6 min of incubation period at room temperature, absorbance was read at 714 nm. The scavenging capacity of the antioxidant for the free-radical was calculated according to the following equation: Radical scavenging effect (%) = (1 − A1/A0) × 100% where A0 is the absorbance of blank control and A1 is the absorbance in the presence of sample. Data are represented from three independent experiments, and the mean values were calculated. […]

[6] = ABTS+ free-radical scavenging assay
Experimental: as §2

mushroom tyrosinase [7] = target: T1, mushroom tyrosinase; settings: L-Tyr substrate, read-out: IC50 Monophenolase; cited from earlier work
mushroom tyrosinase [8] = target: T1, mushroom tyrosinase; settings: L-DOPA substrate, read-out: IC50 Diphenolase; cited from earlier work
B16F10 cell = settings: cited from earlier work

T1 sequence (C7FF04 1-392): as above

Compound	Lag time of monophenolase activity (mushroom tyrosinase [1]) [min]	Steady-state activity of monophenolase decreased to (mushroom tyrosinase [1]; remaining activity) [%]	Inhibition Type (mushroom tyrosinase [2])	Inhibition Mechanism (mushroom tyrosinase [2])	Inhibition constant KIS (mushroom tyrosinase [2]) [µM]	Ki (mushroom tyrosinase [2]) [µM]	KA (apparent binding constant) (tyrosinase [3]; λex 280 nm) [M⁻¹]	KSV (Stern-Volmer quenching constant) (tyrosinase [3]; λex 280 nm) [M⁻¹]	Type of quenching (tyrosinase [3]; λex 280 nm)	n (binding sites) (tyrosinase [3]; λex 280 nm)	Change of relative tyrosinase activity after treatment with Cu2+ (tyrosinase [4])	IC50 of DPPH [5] [µg/mL]	IC50 of ABTS+ [6] [µg/mL]	IC50 (mushroom tyrosinase [7]) [µM]	IC50 (mushroom tyrosinase [8]) [µM]	Inhibition of melanogenesis (B16F10 cell)	Kd (tyrosinase [3]) [µM]
COc1ccccc1C=CC=NNc1nnc(SCc2cc(=O)c(O)co2)n1N [KAD2]	6.7	48.29	Mixed	Reversible	9.18	6.3	141000	57000	Static	1.0394	2 times	227.80	126.63	20.5	7.5 ± 0.13	effectively inhibit melanogenesis	–
N[C@@H](Cc1ccc(O)c(O)c1)C(=O)O [DOPA, 3,4-dihydroxyphenylalanine, reference compound]	–	–	–	–	–	–	–	–	–	–	almost no changes	–	–	–	–	–	–
Nn1c(N/N=C/C=C/c2ccccc2)nnc1SCc1cc(=O)c(O)co1 [KAD1]	–	–	Mixed	Reversible	45.50	4.95	–	58400	Static	0.9394	1.5 times	–	–	21.6	8.33 ± 0.22	–	34.8
